Values after ≈ are worked out from the molar mass of the structure shown.
Legend:
[1] = tested on: Bacteroides fragilis; test: In vitro MIC against clinical isolates of B. fragilis (same agar method); type: cell-based; conditions: 23 clinical isolates of B. fragilis; calculated geometrically
[2] = tested on: C. difficile; test: In vitro MIC against clinical isolates of C. difficile (Brucella agar with sheep's blood, anaerobic); type: cell-based, Clostridium difficile

Row | Compound | MIC50 [1] [μml] | MIC90 [1] [μml] | MIC range ([2]; 60 clinical isolates of C. difficile) | MIC50 [2] [mg/L] | MIC90 [2] [mg/L] | MIC range ([2]; in µg/mL)
1 | CCC[C@@H]1C[C@@H](C(=O)N[C@@H]([C@H]2O[C@H](SC)[C@H](O)[C@@H](O)[C@H]2O)[C@H](C)Cl)N(C)C1 [clindamycin] | 55 | 13 |  |  |  | 
2 | Cc1ncc([N+](=O)[O-])n1CCO [metronidazole] | 1.4 | 2 | 0.25-4 μml |  |  | 
3 | CN[C@H](CC(C)C)C(=O)N[C@H]1C(=O)N[C@@H](CC(N)=O)C(=O)N[C@H]2C(=O)N[C@H]3C(=O)N[C@H](C(=O)N[C@H](C(=O)O)c4cc(O)cc(O)c4-c4cc3ccc4O)[C@H](O)c3ccc(c(Cl)c3)Oc3cc2cc(c3O[C@@H]2O[C@H](CO)[C@@H](O)[C@H](O)[C@H]2O[C@H]2C[C@](C)(N)[C@H](O)[C@H](C)O2)Oc2ccc(cc2Cl)[C@H]1O [vancomycin] |  |  |  | 0.38 (≈ 0.262 µM) | 0.8 (≈ 0.552 µM) | 0.13-2

From patent publication US5958873A, “Oral formulation for treatment of bacteria-induced diseases of the colon” (University of Cincinnati, priority 1997, dated 1999)
